{
  "source": "patent US11591353B2",
  "about": "(Mindset Pharma Inc., priority 2020, dated 2023)",
  "key": {"human 5-HT2A receptor": {"molecular_target": "human 5-HT2A receptor (Homo sapiens (Human), UniProt P28223)", "test": "Radioligand binding assay on human 5-HT2A receptor ([3H]-ketanserin)", "experimental": "i. Prepare the assay buffer following the table below;\nii. Preparation of 8 doses of reference and test compounds starting from 10 mM stock solution as requested by 5-fold serial dilutions with 100%;\niii. […] a. Add 50 μl/well of 0.5% (v/v) PEI to UniFilter-96 GF/B plates. Seal the plates and incubate at 4° C. for 3 hrs; b. After incubation, wash the plates 3 times with ice-cold wash buffer (50 mM Tris, pH7.4);\niv. Preparation of assay plates: a. Dilute cell membrane with assay buffer and add 330 μl/well to 96 round deep well plates to reach a concentration of 20 μg/well; b. […] Dilute [3H]-ketanserin with assay buffer to 5 nM (5× final concentration) and add 110 μl/well to 96 round deep well plates.\nv. Centrifuge the plate at 1000 rpm for 30 secs and then agitate at 600 rpm, R.T. for 5 min.\nvii. Stop the incubation by vacuum filtration onto GF/B filter plates followed by 4 times washing with ice-cold wash buffer (50 mM Tris, pH7.4).\nix. […]\nFor reference and exemplary test compounds of the application, the results are expressed as % Inhibition, using the normalization equation: N=100−100×(U−C2)/(C1−C2), where U is the unknown value, C1 is the average of high controls, and C2 is the average of low controls. The IC50 is determined by fitting percentage of inhibition as a function of compound concentrations with Hill equation using XLfit."}, "male C57 BL6 mice": {"test_system": "male C57 BL6 mice", "test": "Mouse head-twitch response (HTR)", "assay_type": "in vivo", "details": "head twitches over a 1 h period, FIG. 1 and FIG. 2", "experimental": "FIG. 1 is a graph showing the effect of various doses of exemplary compound of Formula I, I-28, on head-twitch response (HTR) in male C57 BL6 mice. The mice were treated with compound I-28 ([…]) by PO route (N=6 mice/dose), and the total number of head twitches were recorded over a 1 h period. Data is expressed as mean±SEM. The induction of head twitches elicited by 5-HT2A receptor agonists is believed to represent a behavioural proxy of their psychedelic effects.\nThe mice were treated with compound MSP-1007 (0.03-10 mg/kg) by SC route (N=6 mice/dose), and the total number of head twitches were recorded over a 1 h period. Data is expressed as mean±SEM. […]\nThe effect of different doses of exemplary compound I-28 of Formula I and its active metabolite were evaluated on head-twitch response (HTR) as a behavior-based model of psychedelic activity.\nMale, C57 BL/6 J mice (body weight range 20-30 g) were dosed with the appropriate dose of test article, and following a 1-minute pre-treatment time, placed in individual observation chambers. Animals were visually assessed for the incidence head twitches continuously over a 1 hr period. […] Each head twitch was individually counted by a trained observer, and the data expressed as the mean±SEM of 6-10 mice per group. […]"}},
  "data": [
    {"smiles": "[2H]C([2H])([2H])N(C([2H])([2H])[2H])C([2H])([2H])C([2H])([2H])c1c[nH]c2cccc(OC(=O)CCCCCCC/C=C\\C/C=C\\CCCCC)c12", "note": "[Compound I-28, 3-(2-(bis(methyl-d3)amino)ethyl-1,1,2,2-d4)-1H-indol-4-yl (9Z,12Z)-octadeca-9,12-dienoate]", "values": [
      {"measurement": "IC50", "setting": "human 5-HT2A receptor", "result": 516, "unit": "nM"}
    ]},
    {"smiles": "[2H]C([2H])([2H])N(C([2H])([2H])[2H])C([2H])([2H])C([2H])([2H])c1c[nH]c2cccc(O)c12", "note": "[Compound I-45, 3-(2-(bis(methyl-d3)amino)ethyl-1,1,2,2-d4)-1H-indol-4-ol]", "values": [
      {"measurement": "efficacy to induce head twitch (in words)", "setting": "male C57 BL6 mice", "result": "greater efficacy to induce head twitch than the exemplary prodrug I-28"}
    ]}
  ]
}
